Data from the Kinase Knowledgebase extract (Sharma et al. 2016).

Target: PIK3CG (human) (UniProt P48736)
Assay: Inhibition of PIK3CG Kinase Activity

Sequence of PIK3CG (human) (P48736 whole entry, looked up): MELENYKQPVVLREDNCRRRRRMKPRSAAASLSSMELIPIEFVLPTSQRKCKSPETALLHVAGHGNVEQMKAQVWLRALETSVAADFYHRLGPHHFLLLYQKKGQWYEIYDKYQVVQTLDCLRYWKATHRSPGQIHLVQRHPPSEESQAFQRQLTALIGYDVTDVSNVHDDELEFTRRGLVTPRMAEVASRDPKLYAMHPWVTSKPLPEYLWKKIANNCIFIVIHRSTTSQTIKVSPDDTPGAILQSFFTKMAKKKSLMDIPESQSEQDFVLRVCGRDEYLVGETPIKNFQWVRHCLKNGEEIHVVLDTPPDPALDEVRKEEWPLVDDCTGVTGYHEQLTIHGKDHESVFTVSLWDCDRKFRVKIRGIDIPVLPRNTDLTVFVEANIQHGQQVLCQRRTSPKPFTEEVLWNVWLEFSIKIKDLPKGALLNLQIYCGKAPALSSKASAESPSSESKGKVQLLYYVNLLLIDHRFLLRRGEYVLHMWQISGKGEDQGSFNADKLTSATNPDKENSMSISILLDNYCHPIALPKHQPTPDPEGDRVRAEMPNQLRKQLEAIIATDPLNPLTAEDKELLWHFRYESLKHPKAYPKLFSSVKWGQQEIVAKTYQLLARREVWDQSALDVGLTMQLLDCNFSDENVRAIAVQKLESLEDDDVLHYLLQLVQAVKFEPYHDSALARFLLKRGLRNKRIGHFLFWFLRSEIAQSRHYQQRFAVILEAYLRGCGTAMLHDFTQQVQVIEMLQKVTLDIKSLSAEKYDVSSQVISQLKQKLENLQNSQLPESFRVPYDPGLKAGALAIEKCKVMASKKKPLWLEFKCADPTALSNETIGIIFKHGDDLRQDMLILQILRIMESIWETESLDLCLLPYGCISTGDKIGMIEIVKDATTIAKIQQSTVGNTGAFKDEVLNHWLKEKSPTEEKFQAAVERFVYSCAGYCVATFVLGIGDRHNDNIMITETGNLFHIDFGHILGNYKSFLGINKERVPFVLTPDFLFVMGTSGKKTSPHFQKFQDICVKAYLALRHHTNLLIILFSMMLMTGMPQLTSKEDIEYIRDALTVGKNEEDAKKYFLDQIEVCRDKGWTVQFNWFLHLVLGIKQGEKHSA

SMILES	IC50 [nM]
CC(=O)Nc1nc2c(s1)-c1c(c(C3CC3)nn1C1CCC(C(=O)N(C)[C@H]3CC[C@@H](N4CCCC4)CC3)CC1)CC2 (some centres undefined)	< 600
CC(=O)Nc1nc2c(s1)-c1c(c(C3(C)CC3)nn1-c1ccc(C(=O)N[C@H]3CC[C@@H](N4CCCCC4)CC3)cc1Cl)CC2	< 600
CC(=O)Nc1nc2c(s1)-c1c(c(C3CC3)nn1-c1ccc(C(=O)NCC3CCN(CC4CCCC4)CC3)cc1Cl)CC2	< 600
CC(=O)Nc1nc2c(s1)-c1c(c(C3CC3)nn1C1CCN(C(=O)N3CCC(N4CCCC4)CC3)CC1)CC2	< 600
CNC(=O)c1ccc(-n2nc(C3CC3)c3c2-c2sc(NC(C)=O)nc2CC3)c(Cl)c1	< 600
CC(=O)Nc1nc2c(s1)-c1c(c(C3CCC3)nn1-c1ccc(C(=O)NC3CCN(C4CCOCC4)CC3)cc1Cl)CC2	< 600
CC(=O)Nc1nc2c(s1)-c1c(c(C3CC3)nn1-c1ccc(C(=O)NC3CCN(C4CCOCC4)CC3)cc1Cl)CC2	< 600
CCCN1CC[C@@H](NC(=O)c2ccc(-n3nc(C4CC4)c4c3-c3sc(NC(C)=O)nc3CC4)c(Cl)c2)C1	< 600
CNC(=O)c1ccc(-n2nc(C3(C)CC3)c3c2-c2sc(NC(C)=O)nc2CC3)c(Cl)c1	< 600
CC(=O)Nc1nc2c(s1)-c1c(c(C3CC3)nn1-c1ccc(C(=O)N[C@H]3CC[C@@H](N(C)CC4CC4)CC3)cc1C)CC2	< 600
CC(=O)Nc1nc2c(s1)-c1c(c(C3CC3)nn1-c1ccc(N(C)C(=O)[C@H]3CC[C@@H](N4CCCC4)CC3)cc1Cl)CC2	< 600
CC(=O)Nc1nc2c(s1)-c1c(c(C3CC3)nn1-c1ccc(C(=O)N[C@H]3CC[C@@H](N(C)CC4CCCC4)CC3)c(F)c1)CC2	< 600
CC(=O)Nc1nc2c(s1)-c1c(c(C3CC3)nn1-c1ccccc1)CC2	< 600
CC(=O)Nc1nc2c(s1)-c1c(c(C3CC3)nn1-c1ccc(C(=O)N[C@H]3CC[C@@H](N(C)CC4CCCC4)CC3)c(Cl)c1)CC2	< 600
CC(=O)Nc1nc2c(s1)-c1c(c(C3CC3)nn1-c1ccc(C(=O)N(C)[C@H]3CC[C@@H](N(C)CC4CC4)CC3)c(C)c1)CC2	< 600
CC(=O)Nc1nc2c(s1)-c1c(c(C3CC3)nn1-c1ccc(C(=O)N(C)[C@H]3CC[C@@H](N(C)CC4CC4)CC3)cc1C)CC2	< 600
CC(=O)Nc1nc2c(s1)-c1c(c(C3(C)CC3)nn1-c1ccc(C(=O)N[C@H]3CC[C@@H](N4CCCC4)CC3)cc1Cl)CC2	< 600
CC(=O)Nc1nc2c(s1)-c1c(c(C3CC3)nn1-c1ccc(CC(=O)N(C)[C@H]3CC[C@@H](N4CCCC4)CC3)cc1Cl)CC2	< 600
CC(=O)Nc1nc2c(s1)-c1c(c(C3CC3)nn1-c1ccc(C(=O)N[C@H]3CC[C@@H](N4CCOCC4)CC3)cc1Cl)CC2	< 600
CC(=O)Nc1nc2c(s1)-c1c(c(C3CC3)nn1-c1ccc(O)cc1Cl)CC2	< 60
CC(=O)Nc1nc2c(s1)-c1c(c(C3CC3)nn1-c1ccc(C(=O)N(C)[C@@H]3CCN(CC4CCCC4)C3)cc1Cl)CC2	< 600
CC(=O)Nc1nc2c(s1)-c1c(c(C3CC3)nn1-c1ccc(C(=O)N(C)CC3CCN(C4CCCC4)CC3)cc1Cl)CC2	< 600
CC(=O)Nc1nc2c(s1)-c1c(c(C3CC3)nn1-c1ccc(C(=O)N[C@@H]3CN4CCC3CC4)c(Cl)c1)CC2	< 600
CCN(C(=O)c1ccc(-n2nc(C3CC3)c3c2-c2sc(NC(C)=O)nc2CC3)c(F)c1)[C@H]1CC[C@@H](N2CCCC2)CC1	< 600
CC(=O)Nc1nc2c(s1)-c1c(c(C3CCC3)nn1-c1ccc(C(=O)NC3CCN(CC4CCCC4)CC3)cc1Cl)CC2	< 600

SMILES	IC50 [nM]
CC(=O)Nc1nc2c(s1)-c1c(c(C3CCCC3)nn1-c1ccccc1Cl)CC2	< 600
CCCN1CCC(C(=O)N(C)c2ccc(-n3nc(C4CC4)c4c3-c3sc(NC(C)=O)nc3CC4)c(Cl)c2)CC1	< 600
CC(=O)Nc1nc2c(s1)-c1c(c(C3CC3)nn1-c1ccc(C(=O)N(C)[C@H]3CC[C@@H](N(C)CC4CCCC4)CC3)c(Cl)c1)CC2	< 600
CC(=O)Nc1nc2c(s1)-c1c(c(C3CCC3)nn1-c1ccccc1Cl)CC2	< 600
CC(=O)Nc1nc2c(s1)-c1c(c(C3CCCC3)nn1-c1ccc(C(=O)N[C@H]3CC[C@@H](N4CCCC4)CC3)cc1Cl)CC2	< 600
CC(=O)Nc1nc2c(s1)-c1c(c(C3(C)CC3)nn1-c1ccc(C(=O)NC3CCN(C)CC3)cc1Cl)CC2	< 600
CC(=O)Nc1nc2c(s1)-c1c(c(C3CC3)nn1-c1ccc(CC(N)=O)cc1Cl)CC2	< 600
CCCN1CCC(NC(=O)C2CCC(n3nc(C4CC4)c4c3-c3sc(NC(C)=O)nc3CC4)CC2)CC1 (centres undefined)	< 600
CC(=O)Nc1nc2c(s1)-c1c(c(C3CC3)nn1-c1ccc(C(=O)NC[C@H]3CCNC3)c(Cl)c1)CC2	< 600
CC(=O)Nc1nc2c(s1)-c1c(c(C3CC3)nn1-c1ccc(NCC3CCN(C)CC3)cc1Cl)CC2	< 600
CC(=O)Nc1nc2c(s1)-c1c(c(C3CC3)nn1-c1ccc(C(=O)NC[C@@H]3CCNC3)c(Cl)c1)CC2	< 600
CC(=O)Nc1nc2c(s1)-c1c(c(C3CC3)nn1-c1ccc(C(=O)N[C@H]3CC[C@@H](N4CCCCC4)CC3)cc1F)CC2	< 600
CC(=O)Nc1nc2c(s1)-c1c(c(C3CC3)nn1-c1ccc(C(=O)N[C@H]3CC[C@@H](N4CCCC4)CC3)cc1F)CC2	< 600
CC(=O)Nc1nc2c(s1)-c1c(c(C3CC3)nn1-c1ccc(C(=O)N(C)C3CCC(N(C)CC4CCCC4)CC3)c(F)c1)CC2 (centres undefined)	< 600
CC(=O)Nc1nc2c(s1)-c1c(c(C3CC3)nn1-c1ccc(NCC3CCN(C(=O)OC(C)(C)C)CC3)cc1Cl)CC2	< 600
CC(=O)Nc1nc2c(s1)-c1c(c(C3CC3)nn1-c1ccc(C(=O)N[C@H]3CC[C@@H](N4CCCC4)CC3)cc1Cl)CC2	< 600
CCCN1CCC(CNc2ccc(-n3nc(C4CC4)c4c3-c3sc(NC(C)=O)nc3CC4)c(Cl)c2)CC1	< 600
CC(=O)Nc1nc2c(s1)-c1c(c(C3CC3)nn1C1CCN(C(=O)N3CCC(N(C)C)CC3)CC1)CC2	< 600
CC(=O)Nc1nc2c(s1)-c1c(c(C3CCC3)nn1-c1ccc(C(=O)N[C@H]3CC[C@@H](N4CCCC4)CC3)cc1Cl)CC2	< 600
CC(=O)Nc1nc2c(s1)-c1c(c(C3CC3)nn1-c1ccc(C(=O)N[C@H]3CC[C@@H](N(C)CC4CC4)CC3)c(Cl)c1)CC2	< 600
CCCN1CCC(NC(=O)c2ccc(-n3nc(C4CCC4)c4c3-c3sc(NC(C)=O)nc3CC4)c(Cl)c2)CC1	< 600
CC(=O)Nc1nc2c(s1)-c1c(c(C3CC3)nn1-c1ccc(C(=O)N[C@H]3CC[C@@H](N(C)CC4CC4)CC3)cc1F)CC2	< 600
CC(=O)Nc1nc2c(s1)-c1c(c(C3CC3)nn1-c1ccc(C(=O)N(C)[C@H]3CC[C@@H](N(C)CC4CCCC4)CC3)cc1C)CC2	< 600
CC(=O)Nc1nc2c(s1)-c1c(c(C3CC3)nn1-c1ccc(NCC3CCNCC3)cc1Cl)CC2	< 600
CC(=O)Nc1nc2c(s1)-c1c(c(C3CC3)nn1-c1ccc(C(=O)N[C@H]3CN4CCC3CC4)c(Cl)c1)CC2	< 600

Further lines, results first:

IC50 [nM]	SMILES
< 600	CC(=O)Nc1nc2c(s1)-c1c(c(C3CC3)nn1-c1ccc(C(=O)N(C)[C@H]3CCN(C4CCCCC4)C3)c(F)c1)CC2
< 600	CC(=O)Nc1nc2c(s1)-c1c(c(C3CC3)nn1-c1ccc(C(=O)NC[C@H]3CCN(C4CCCC4)C3)c(Cl)c1)CC2
< 600	CC(=O)Nc1nc2c(s1)-c1c(c(C3CC3)nn1-c1ccc(C(=O)N(C)[C@H]3CCN(C4CCCCC4)C3)cc1Cl)CC2
< 600	CC(=O)Nc1nc2c(s1)-c1c(c(C3CC3)nn1-c1ccc(C(=O)NC3CCN(C4CCOCC4)CC3)c(Cl)c1)CC2
< 600	CC(=O)Nc1nc2c(s1)-c1c(c(C3CC3)nn1-c1ccc(C(=O)N[C@H]3CC[C@@H](N4CCOCC4)CC3)cc1C)CC2
< 600	CC(=O)Nc1nc2c(s1)-c1c(c(C3CC3)nn1-c1ccc(C(=O)N(C)C3CCN(C4CCCC4)C3)c(Cl)c1)CC2 (centres undefined)
< 600	CC(=O)Nc1nc2c(s1)-c1c(c(C3CC3)nn1-c1ccc(C(=O)NC3CCN(CC4CCCC4)CC3)c(F)c1)CC2
< 600	CC(=O)Nc1nc2c(s1)-c1c(c(C3CC3)nn1-c1ccc(C(=O)N(C)[C@H]3CCN(C4CCCCC4)C3)cc1F)CC2
< 600	CC(=O)Nc1nc2c(s1)-c1c(c(C3CC3)nn1-c1ccc(C(=O)N(C)[C@H]3CCN(C4CCCCC4)C3)cc1C)CC2
< 600	CC(=O)Nc1nc2c(s1)-c1c(c(C3CC3)nn1-c1ccc(C(=O)NC3CCN(C4CCCC4)CC3)c(F)c1)CC2
< 600	CC(=O)Nc1nc2c(s1)-c1c(c(C3CC3)nn1-c1ccc(C(=O)N[C@H]3CCN(C4CCCCC4)C3)cc1F)CC2
< 600	CC(=O)Nc1nc2c(s1)-c1c(c(C3CC3)nn1-c1ccc(C(=O)N[C@H]3CC[C@@H](N4CCCCC4)CC3)c(C)c1)CC2
< 600	CC(=O)Nc1nc2c(s1)-c1c(c(C3CC3)nn1-c1ccc(C(=O)NC3CCN(C4CCCCC4)CC3)cc1C)CC2
< 600	CC(=O)Nc1nc2c(s1)-c1c(c(C3CC3)nn1-c1ccc(C(=O)N[C@@H]3CCN(C4CCCC4)C3)cc1C)CC2
< 600	CC(=O)Nc1nc2c(s1)-c1c(c(C3CC3)nn1-c1ccc(C(=O)NCC3CCN(C4CCCC4)CC3)cc1Cl)CC2
< 600	CCCN1CC[C@@H](NC(=O)c2ccc(-n3nc(C4CC4)c4c3-c3sc(NC(C)=O)nc3CC4)cc2C)C1
< 600	CC(=O)Nc1nc2c(s1)-c1c(c(C3CC3)nn1-c1ccc(C(=O)N[C@@H]3CCN(C4CCCC4)C3)c(C)c1)CC2
< 600	CC(=O)Nc1nc2c(s1)-c1c(c(C3CC3)nn1-c1ccc(C(=O)N(C)C3CCN(C4CCCC4)CC3)c(C)c1)CC2
< 600	CC(=O)Nc1nc2c(s1)-c1c(c(C3CC3)nn1-c1ccc(C(=O)NC3CCN(CC4CCCCC4)CC3)c(Cl)c1)CC2
< 600	COc1cc(-n2nc(C3CC3)c3c2-c2sc(NC(C)=O)nc2CC3)ccc1C(=O)N(C)C1CCN(C2CCCC2)CC1
< 600	CC(=O)Nc1nc2c(s1)-c1c(c(C3CC3)nn1-c1ccc(C(=O)N[C@@H]3CCN(C4CCCCC4)C3)cc1C)CC2
< 600	CC(=O)Nc1nc2c(s1)-c1c(c(C3CC3)nn1-c1ccc(C(=O)NC3CCN(C4CCCCC4)CC3)c(C)c1)CC2
< 600	CC(=O)Nc1nc2c(s1)-c1c(c(C3CC3)nn1-c1ccc(C(=O)NC3CCN(C4CCCC4)CC3)cc1C)CC2
< 600	CC(=O)Nc1nc2c(s1)-c1c(c(C3CCCC3)nn1-c1ccc(C(=O)NC3CCN(C4CCCC4)CC3)cc1Cl)CC2
